Laboratory results published in PMC8624133, “10th Trends in Medical Mycology Held on 8 to 11 October 2021, Aberdeen, Scotland, Organized by the European Confederation of Medical Mycology (ECMM)” (Journal of Fungi, 2021).
Converted amounts (≈) assume the structure as drawn. “And” between values parts separate entries of the source, which are not always exact repeats. Equal values may be shown once. Read-outs that look alike come from different tables or passages of the source.

How the values were obtained:
C. parapsilosis [1] = assay: Vitek and EUCAST microdilution susceptibility; assay type: cell-based, Candida parapsilosis; details: Lodderomyces parapsilosis
[2] = test system: CgCDR1, CgCDR2 and CgSNQ2 genes; assay: Real-time PCR of ATP-binding cassette transporter genes; assay type: cell-based, Candida glabrata
C. parapsilosis [3] = assay: Candidemia Netherlands, MIC distributions against EUCAST ECOFF; assay type: cell-based, Candida parapsilosis
C. blankii = assay: Vitek 2 fungal susceptibility card; assay type: cell-based, Candida blankii
Candida isolates = assay type: cell-based, Candida spp.
[4] = test system: Cryptococcus bacillisporus (AFLP5/VGIII); assay: E-test method; assay type: cell-based
C. glabrata isolates = assay: Rapid XTT assay based on EUCAST E.Def 7.3; assay type: cell-based, Candida glabrata
Cryptococcal isolates = assay: CLSI broth micro dilution; assay type: cell-based, Cryptococcus neoformans, C. gattii
Candida catenulata = assay: CLSI M44 agar diffusion; assay type: cell-based
C. albicans = assay: In vitro fluconazole susceptibility, neonatal invasive candidiasis; assay type: cell-based, Candida albicans
C. glabrata = assay: Candidemia Netherlands, MIC distributions against EUCAST ECOFF; assay type: cell-based, Candida glabrata
Candida auris isolates = assay: Disc diffusion, Oxoid discs; assay type: cell-based; details: 25 µg FLU and 5 µg CAS discs; […]
Candida lipolytica = assay: CLSI M44 agar diffusion; assay type: cell-based
A. fumigatus isolates = assay: AFST by EUCAST method and direct inoculation of spore suspensions
Experimental: Material/methods: We used two methods for AFST: In the standard “EUCAST method”, AFST was performed using spores from a maturated colony. In the “direct inoculation method”, AFST was performed using the spore suspensions that were either stored or sent from other laboratories directly without a subculturing phase. Three groups of isolates were analyzed. […] Spore suspensions were prepared and AFST was performed daily after storing the isolates for 4 days at room temperature, and after 4 days for spore suspensions stored at 2–4 °C and at 28 °C. All measurements were performed in triplicate. Group II, retrospective analysis: 50 isolates that were sent to our laboratory as spore suspensions were tested using the direct inoculation method and stored at −70 °C in glycerol broth. The stored isolates were revived and AFST was repeated using the EUCAST method. Group III: prospective analysis: 30 isolates that were sent to our laboratory as spore suspensions were tested using the direct inoculation method and simultaneously using the EUCAST methods without storage at −70 °C. MICs based on the EUCAST and direct inoculation methods were compared.

A. fumigatus strains = assay: EUCAST E.DEF 9.3.2 broth microdilution; assay type: cell-based, Aspergillus fumigatus; design: MIC Range: unit not given beside the values; MIC50 / MIC90: unit not given here
Experimental: Methods: The research was conducted on 29 A. fumigatus strains. Minimum inhibitory concentrations (MIC) were detected by broth microdilution method (BM) following EUCAST definitive document E.DEF 9.3.2 and E-test in accordance with manufacturer instructions.

A. fumigatus complex = details: share of isolates, n = 59, EUCAST clinical breakpoints
[5] = Triazole drug levels in ABPA patients with asthma; assay type: in vivo, human; details: 452 patients, Oct 2009 to March 2021
From the text: Materials & Methods: This was a retrospective single-centre cohort study evaluating longitudinal outcomes in non-cystic fibrosis (CF) ABPA patients with underlying chronic lung disease (asthma), and description of treatment approaches. Statistical Analysis System (SAS) programming was used for data integration from multiple hospital electronic systems, for patient identification and data analysis. Criteria for inclusion were patients with a background of asthma, serum Total IgE >1000 IU/mL and a positive Aspergillus IgE, with or without a positive culture for A. fumigatus from a respiratory sample. Data collected included demographics, lung function severity, disease activity serological markers (Aspergillus IgE, Aspergillus IgG, Total IgE) and triazole levels. In this study the impact of fungal therapy on disease outcomes was assessed.

McLDM strains = assay: EUCAST MIC, S. cerevisiae overexpressing M. circinelloides LDM, resistance phenotypes; assay type: cell-based, Saccharomyces cerevisiae
C. auris = assay: EUCAST EDef 7.3.1 MIC and checkerboard microdilution; assay type: cell-based, Candida auris
Experimental: Methods: We studied 22 C. auris isolates obtained from different clinical samples from the Hospital La Fe, Valencia, Spain (eight from blood culture, seven from oropharynx and seven from urine cultures). Candida parapsilosis ATCC 22019 and Candida krusei ATCC 6258 were used as quality controls. The minimum inhibitory concentration (MIC) was determined according to the European Committee on Antibiotic Susceptibility Testing (EUCAST) EDef 7.3.1 document. The interaction between citral and the rest of antifungal drugs was assessed by a checkerboard microdilution method. […] The in vitro interaction of the drug combinations was interpreted in terms of the fractional inhibitory concentration index (FICI) as follows: FICI < 1, synergistic; FICI equal to 1, additive; and FICI > 1, indifferent or antagonistic.

[6] = test system: Aspergillus spp. isolates; assay: Gradient strip susceptibility (Liofilchem); assay type: cell-based; details: for isolates with in vitro high MIC values: first isolate per species and patient
[7] = Voriconazole exposure during ECMO, retrospective; assay type: in vivo, human
[8] = test system: A. fumigatus isolates from BAL; assay: Sensititre YeastOne Y010, read according to CLSI (2020); assay type: cell-based, Aspergillus fumigatus
Experimental: Materials & Methods: Retrospective evaluation of antifungal susceptibility for A. fumigatus isolates from bronchoalveolar lavage (BAL) fluid in pts with invasive pulmonary aspergillosis was performed. All isolates were obtained from hematological pts admitted to National Research Center for Hematology (Moscow) between 2016 and 2020. All A. fumigatus species were identified by morphology, matrix-assisted laser desorption ionization time of flight mass spectrometry. The azole-resistant strains were identified by ITS, β-tubulin, calmodulin and actine gene sequencing. […] The MIC of antifungal agents were read according to the CLSI (2020). Cyp51A was sequenced to establish the most common resistance mechanisms embedded in azole-resistant A. fumigatus.

[9] = test system: Aspergillus isolates (total); assay: Triazole resistance agar screening, four-well plate; details: RPMI agar, 1 µg/mL, 50 isolates
Experimental: All the isolates were identified phenotypically. […] Fungal spores were suspended in normal saline (0.85%) and adjusted to 0.5 McFarland and 50 μL was plated in each well. […] Plates were incubated at 35–37 °C for 72 h in ambient air. The presence or absence of growth was observed visually at 24 h, 48 h, and 72 h.

Aspergillus tubingensis = assay: EUCAST susceptibility; assay type: cell-based; details: read-out: MIC
Experimental: The fungus was identified as Aspergillus niger and liposomal amphotericine B was switched to anidulafungin pending susceptibility testing as the patient had pre-existing […] (eGFR CKD-EPI 40 mL/min/1.73 m²). […] Despite increasing the anidulafungin dosage to 200 mg daily and adequate voriconazol levels, serum galactomannan levels remained elevated (index 2.1 at discharge). […] Since no extracardiac sources were found and the patient did well clinically, they were discharched. Anidulafungin was switched to caspofungin to facilitate ongoing IV treatment in the outpatient setting. […] The patient died shortly after. Obduction was not performed.

[10] = […], discs 25 μg fluconazole, 1 μg voriconazole

Structure (SMILES)	MIC (C. parapsilosis [1])	isolates within the wildtype distribution range (C. parapsilosis [3])	MIC50 (Cryptococcal isolates)	MIC90 (Cryptococcal isolates)	isolates within the wildtype distribution range (C. glabrata)	MIC50 (A. fumigatus strains; 28 h)	MIC90 (A. fumigatus strains; 28 h)	MIC Range (A. fumigatus strains; 28 h, 29 strains)	MIC50 (A. fumigatus strains; 48 h)	MIC90 (A. fumigatus strains; 48 h)	MIC Range (A. fumigatus strains; 48 h)	Resistance (A. fumigatus complex)	median trough drug level [5]	MICs compared to AD2Δ (McLDM strains)	isolates with in vitro high MIC values [6]	further results
OC(Cn1cncn1)(Cn1cncn1)c1ccc(F)cc1F [fluconazole]	8 µg/mL (≈ 26.1 µM)	92.5%	1 µg/mL (≈ 3.27 µM)	4 µg/mL (≈ 13.1 µM)	83.6%	–	–	–	–	–	–	–	–	–	–	expression of CgCDR1, CgCDR2 and CgSNQ2 genes [2]: over-expressed; susceptibility (C. blankii): resistant; resistant isolates (Candida isolates): 6.4%; antifungal susceptibility [4]: low response; XTT-absorbance in drug-treated wells (C. glabrata isolates): 0.67 ± 0.15 and 0.51 ± 0.08; resistant isolates (Candida catenulata; [10]): 19%; dose-dependent susceptible pathogens (C. albicans): 0%; in vitro resistant pathogens (C. albicans): 7%; median zone diameter (ZD) (Candida auris isolates): 0 mm; resistant isolates (Candida lipolytica; [10]): 67%
CCC(C)n1ncn(-c2ccc(N3CCN(c4ccc(OCC5COC(Cn6cncn6)(c6ccc(Cl)cc6Cl)O5)cc4)CC3)cc2)c1=O (stereo not drawn) [itraconazole]	–	–	–	–	–	0.5	0.5	0.5–8	0.5	1	0.5–16	5%	0.76 mg/L	not affected	–	MIC (A. fumigatus isolates; Aspergillus fumigatus, Group II, 5 strains, direct inoculation method): 2 to 4 µg/mL (≈ 2.83 to 5.67 µM); MIC (A. fumigatus isolates; Aspergillus fumigatus, Group II, the same 5 strains, EUCAST method): 0.5 to 1 µg/mL (≈ 0.709 to 1.42 µM)
C[C@@H]1[C@H](O)[C@@H](C)/C=C/C=C/C=C/C=C/C=C/C=C/C=C/[C@H](O[C@@H]2O[C@H](C)[C@@H](O)[C@H](N)[C@@H]2O)C[C@@H]2O[C@](O)(C[C@@H](O)C[C@@H](O)[C@H](O)CC[C@@H](O)C[C@@H](O)CC(=O)O[C@H]1C)C[C@H](O)[C@H]2C(=O)O [amphotericin B]	0.5 µg/mL (≈ 0.541 µM)	92.9%	0.25 µg/mL (≈ 0.271 µM)	0.5 µg/mL (≈ 0.541 µM)	98.6%	–	–	–	–	–	–	–	–	not affected	19.6%	susceptibility (Candida isolates): susceptible; MIC of amphotericin B in combination with citral (C. auris): 0.016 µg/mL; MIC (C. auris; Candidozyma auris, 22 clinical isolates): 0.25 µg/mL; MIC ([6]; gradient strips, ten isolates (5 A. terreus, 3 A. flavus, 1 A. fumigatus, 1 A. nidulans)): > 32 µg/mL
C[C@@H](c1ncncc1F)[C@](O)(Cn1cncn1)c1ccc(F)cc1F [voriconazole]	–	–	–	–	–	0.5	1	0.25–4	1	2	0.25–8	9%	0.82 mg/L	–	1.9%	samples with subtherapeutic concentration (<2 mg/L) ([7]; during ECMO): 56%; median trough concentration [IQR] ([7]; under ECMO): 2.4 [1.2–4.7] mg/L; median trough concentration [IQR] ([7]; without ECMO): 2.5 [1.4–3.9] mg/L; samples with subtherapeutic concentration (<2 mg/L) ([7]; without ECMO): 39%; MIC (A. fumigatus isolates; Aspergillus fumigatus, Group I, one resistant isolate): 2 to 4 µg/mL (≈ 5.73 to 11.5 µM); MIC (A. fumigatus isolates; Group III, one isolate, EUCAST methods): 2 µg/mL (≈ 5.73 µM); MIC (A. fumigatus isolates; Group III, the same isolate, direct inoculation): 1 µg/mL (≈ 2.86 µM); isolates with elevated MIC ([8]; 2 of 35): 5.7%; MIC ([8]; Aspergillus fumigatus, BAL, read-out: elevated minimum inhibitory concentrations (MIC)): > 8 µg/mL; isolates with growth only in voriconazole well, n (%) ([9]; 48 h): 1 (2%); isolates with growth only in voriconazole well, n (%) ([9]; 72 h): 16 (32%); MIC (Aspergillus tubingensis): 1 µg/mL (≈ 2.86 µM); resistant isolates (Candida catenulata): 19%; resistant isolates (Candida lipolytica): 58%
